{"source": "PubChem BioAssay AID1259409", "about": "(Chemical Carcinogenesis Research Information System (CCRIS), 2018)", "origin": "cited, not measured here", "system": "rodent chemically induced tumor inhibition, incidence and multiplicity", "assay": "CCRIS tumor inhibitor studies", "conditions": "Dose [Inhibitor]: 0, Route [Inhibitor]: ORAL, Promoter: NONE USED"}
{"smiles": "Cc1c(-c2cnccn2)ssc1=S", "values": [{"measurement": "tumour outcome (control, treated, inhibition, significance)", "setting": "Carcinogen: 2-AMINO-1-METHYL-6-PHENYLIMIDAZO[4,5-B]PYRIDINE, 105650-23-5, 200 PPM IN DIET FOR 52 WK (STUDY DURATION: 52 WK), Species: RAT, Strain/Sex: F344/MALE, Target Tissue: Type of Lesion: LYMPHATIC SYSTEM: LYMPHOMA, Dose [Carcinogen]: 400 PPM IN DIET FOR 10 WK THEN 200 PPM TO WK 14 FOLLOWED BY 100 PPM FOR DURATION OF STUDY", "value": "75%, 6%, 92%, not calculated"}, {"measurement": "tumour outcome (control, treated, inhibition, significance)", "setting": "Carcinogen: 2-AMINO-1-METHYL-6-PHENYLIMIDAZO[4,5-B]PYRIDINE, 105650-23-5, 400 PPM IN DIET FOR 52 WK (STUDY DURATION: 52 WK), Species: RAT, Strain/Sex: F344/MALE, Target Tissue: Type of Lesion: LYMPHATIC SYSTEM: LYMPHOMA, Dose [Carcinogen]: 400 PPM IN DIET FOR 10 WK THEN 200 PPM TO WK 14 FOLLOWED BY 100 PPM FOR DURATION OF STUDY", "value": "75%, 0%, 100%, not calculated"}, {"measurement": "tumour outcome (control, treated, inhibition, significance)", "setting": "Carcinogen: 4-(METHYLNITROSAMINO)-1-(3-PYRIDYL)-1-BUTANONE, 64091-91-4, 0.25 G/KG DIET (EFFECTIVE DOSE 3.31 UMOL/D) BEGINNING 2 WK PRIOR TO CARCINOGEN TREATMENT AND CONTINUING FOR DURATION, Species: MOUSE, Strain/Sex: STRAIN-A/FEMALE, Target Tissue: Type of Lesion: LUNG: TUMORS, Dose [Carcinogen]: 9.0-9.2 MG/MOUSE (TOTAL DOSE) IN DRINKING WATER ADMINISTERED OVER 7 WK", "value": "28/28 (100%), 25/25 (100%), 0%, not significant"}, {"measurement": "tumour outcome (control, treated, inhibition, significance)", "setting": "Carcinogen: AZOXYMETHANE, 25843-45-2, 200 PPM IN DIET 7 WK PRIOR TO CARCINOGEN TREATMENT AND CONTINUING FOR STUDY DURATION (STUDY DURATION: 59 WK), Species: RAT, Strain/Sex: F344/MALE, Target Tissue: Type of Lesion: COLON: ADENOCARCINOMA, Dose [Carcinogen]: 15 MG/KG 1/WK FOR 2 WK", "value": "72%, 47%, 35%, p<0.05"}, {"measurement": "tumour outcome (control, treated, inhibition, significance)", "setting": "Carcinogen: AZOXYMETHANE, 25843-45-2, 200 PPM IN DIET 7 WK PRIOR TO CARCINOGEN TREATMENT AND CONTINUING FOR STUDY DURATION (STUDY DURATION: 59 WK), Species: RAT, Strain/Sex: F344/MALE, Target Tissue: Type of Lesion: COLON: ADENOMA, Dose [Carcinogen]: 15 MG/KG 1/WK FOR 2 WK", "value": "14%, 6%, 57%, p<0.05"}, {"measurement": "tumour outcome (control, treated, inhibition, significance)", "setting": "Carcinogen: AZOXYMETHANE, 25843-45-2, 200 PPM IN DIET 7 WK PRIOR TO CARCINOGEN TREATMENT AND CONTINUING FOR STUDY DURATION (STUDY DURATION: 59 WK), Species: RAT, Strain/Sex: F344/MALE, Target Tissue: Type of Lesion: SMALL INTESTINE: ADENOCARCINOMA, Dose [Carcinogen]: 15 MG/KG 1/WK FOR 2 WK", "value": "50%, 16%, 68%, p<0.001"}, {"measurement": "tumour outcome (control, treated, inhibition, significance)", "setting": "Carcinogen: AZOXYMETHANE, 25843-45-2, 200 PPM IN DIET BEGINNING 2 WK PRIOR TO CARCINOGEN TREATMENT AND CONTINUING FOR 3 D POST LAST CARCINOGEN DOSE FOLLOWE, Species: RAT, Strain/Sex: F344/MALE, Target Tissue: Type of Lesion: COLON: INVASIVE ADENOCARCINOMA, Dose [Carcinogen]: 15 MG/KG 1/WK FOR 2 WK", "value": "33%, 3%, 91%, p<0.001"}, {"measurement": "tumour outcome (control, treated, inhibition, significance)", "setting": "Carcinogen: AZOXYMETHANE, 25843-45-2, 200 PPM IN DIET BEGINNING 2 WK PRIOR TO CARCINOGEN TREATMENT AND CONTINUING FOR 3 D POST LAST CARCINOGEN DOSE FOLLOWE, Species: RAT, Strain/Sex: F344/MALE, Target Tissue: Type of Lesion: COLON: NONINVASIVE ADENOCARCINOMA, Dose [Carcinogen]: 15 MG/KG 1/WK FOR 2 WK", "value": "53%, 43%, 19%, not significant"}, {"measurement": "tumour outcome (control, treated, inhibition, significance)", "setting": "Carcinogen: AZOXYMETHANE, 25843-45-2, 200 PPM IN DIET BEGINNING 2 WK PRIOR TO CARCINOGEN TREATMENT AND CONTINUING FOR 3 D POST LAST CARCINOGEN DOSE FOLLOWE, Species: RAT, Strain/Sex: F344/MALE, Target Tissue: Type of Lesion: SMALL INTESTINE: INVASIVE ADENOCARCINOMA, Dose [Carcinogen]: 15 MG/KG 1/WK FOR 2 WK", "value": "22%, 7%, 68%, p<0.05"}, {"measurement": "tumour outcome (control, treated, inhibition, significance)", "setting": "Carcinogen: AZOXYMETHANE, 25843-45-2, 200 PPM IN DIET BEGINNING 2 WK PRIOR TO CARCINOGEN TREATMENT AND CONTINUING FOR 3 D POST LAST CARCINOGEN DOSE FOLLOWE, Species: RAT, Strain/Sex: F344/MALE, Target Tissue: Type of Lesion: SMALL INTESTINE: NONINVASIVE ADENOCARCINOMA, Dose [Carcinogen]: 15 MG/KG 1/WK FOR 2 WK", "value": "6%, 3%, 50%, not significant"}, {"measurement": "tumour outcome (control, treated, inhibition, significance)", "setting": "Carcinogen: AZOXYMETHANE, 25843-45-2, 200 PPM IN DIET BEGINNING 3 D POST LAST CARCINOGEN DOSE AND CONTINUING FOR DURATION OF STUDY (STUDY DURATION: 56 WK), Species: RAT, Strain/Sex: F344/MALE, Target Tissue: Type of Lesion: COLON: INVASIVE ADENOCARCINOMA, Dose [Carcinogen]: 15 MG/KG 1/WK FOR 2 WK", "value": "33%, 0%, 100%, p<0.001"}, {"measurement": "tumour outcome (control, treated, inhibition, significance)", "setting": "Carcinogen: AZOXYMETHANE, 25843-45-2, 200 PPM IN DIET BEGINNING 3 D POST LAST CARCINOGEN DOSE AND CONTINUING FOR DURATION OF STUDY (STUDY DURATION: 56 WK), Species: RAT, Strain/Sex: F344/MALE, Target Tissue: Type of Lesion: COLON: NONINVASIVE ADENOCARCINOMA, Dose [Carcinogen]: 15 MG/KG 1/WK FOR 2 WK", "value": "53%, 73%, -38%, not significant"}, {"measurement": "tumour outcome (control, treated, inhibition, significance)", "setting": "Carcinogen: AZOXYMETHANE, 25843-45-2, 200 PPM IN DIET BEGINNING 3 D POST LAST CARCINOGEN DOSE AND CONTINUING FOR DURATION OF STUDY (STUDY DURATION: 56 WK), Species: RAT, Strain/Sex: F344/MALE, Target Tissue: Type of Lesion: SMALL INTESTINE: INVASIVE ADENOCARCINOMA, Dose [Carcinogen]: 15 MG/KG 1/WK FOR 2 WK", "value": "22%, 20%, 9%, not significant"}, {"measurement": "tumour outcome (control, treated, inhibition, significance)", "setting": "Carcinogen: AZOXYMETHANE, 25843-45-2, 200 PPM IN DIET BEGINNING 3 D POST LAST CARCINOGEN DOSE AND CONTINUING FOR DURATION OF STUDY (STUDY DURATION: 56 WK), Species: RAT, Strain/Sex: F344/MALE, Target Tissue: Type of Lesion: SMALL INTESTINE: NONINVASIVE ADENOCARCINOMA, Dose [Carcinogen]: 15 MG/KG 1/WK FOR 2 WK", "value": "6%, 3%, 50%, not significant"}, {"measurement": "tumour outcome (control, treated, inhibition, significance)", "setting": "Carcinogen: AZOXYMETHANE, 25843-45-2, 200 PPM IN DIET FOR 56 WK BEGINNING 2 WK PRIOR TO CARCINOGEN TREATMENT (STUDY DURATION: 56 WK), Species: RAT, Strain/Sex: F344/MALE, Target Tissue: Type of Lesion: COLON (DISTAL): TUMOR, Dose [Carcinogen]: 15 MG/KG 1/WK FOR 2 WK", "value": "47%, 28%, 40%, not significant"}, {"measurement": "tumour outcome (control, treated, inhibition, significance)", "setting": "Carcinogen: AZOXYMETHANE, 25843-45-2, 200 PPM IN DIET FOR 56 WK BEGINNING 2 WK PRIOR TO CARCINOGEN TREATMENT (STUDY DURATION: 56 WK), Species: RAT, Strain/Sex: F344/MALE, Target Tissue: Type of Lesion: COLON (PROXIMAL): TUMOR, Dose [Carcinogen]: 15 MG/KG 1/WK FOR 2 WK", "value": "39%, 30%, 23%, not significant"}]}
